Laboratory results reported in US9029391B2 (priority 2011, dated 2015).

Test system: HIV
Assay: MT4 Assay (anti-HIV activity)
Format: cell-based
Settings: Human immunodeficiency virus 1, 96 h, read-out: HIV MT4 Assay IC50, HTLV-1 transformed cell line MT-4, cell titer glo, 10 point dose response curve
Summary of the method: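 MT-4 cells (HTLV-1 transformed) were used for antiviral activity and cytotoxicity, run in parallel, with luminescence read by CellTiter-Glo 96 hours later. Percent inhibition was expressed against the no-compound control. IC50s came from 10-point curves of 3-4-fold serial dilutions spanning >1000-fold.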

| SMILES | IC50 [nM] |
| --- | --- |
| Cc1c(-c2c([C@H](OC(C)(C)C)C(=O)O)n(C)c(=O)c3cc(OCc4ccc(F)c(F)c4)ccc23)ccc2c1CCCO2 [Example 108, (2S)-2-(tert-butoxy)-2-{7-[(3,4-difluorophenyl)methoxy]-2-methyl-4-(5-methyl-3,4-dihydro-2H-1-benzopyran-6-yl)-1-oxo-1,2-dihydroisoquinolin-3-yl}acetic acid] | 30 |
| Cc1c(-c2c([C@H](OC(C)(C)C)C(=O)O)n(C)c(=O)c3cc(OCc4cccs4)ccc23)cc(F)c2c1CCCO2 [Example 109, (2S)-2-(tert-butoxy)-2-[4-(8-fluoro-5-methyl-3,4-dihydro-2H-1-benzopyran-6-yl)-2-methyl-1-oxo-7-(thiophen-2-ylmethoxy)-1,2-dihydroisoquinolin-3-yl]acetic acid] | 20 |
| Cc1c(-c2c([C@H](OC(C)(C)C)C(=O)O)n(C)c(=O)c3cc(OCc4ccc(Cl)s4)ccc23)cc(F)c2c1CCCO2 [Example 110, (2S)-2-(tert-butoxy)-2-{7-[(5-chlorothiophen-2-yl)methoxy]-4-(8-fluoro-5-methyl-3,4-dihydro-2H-1-benzopyran-6-yl)-2-methyl-1-oxo-1,2-dihydroisoquinolin-3-yl}acetic acid] | 40 |
| Cc1c(-c2c([C@H](OC(C)(C)C)C(=O)O)n(C)c(=O)c3cc(OCc4cccs4)ccc23)ccc2c1CCCO2 [Example 111, (2S)-2-(tert-butoxy)-2-[2-methyl-4-(5-methyl-3,4-dihydro-2H-1-benzopyran-6-yl)-1-oxo-7-(thiophen-2-ylmethoxy)-1,2-dihydroisoquinolin-3-yl]acetic acid] | 30 |
| Cc1c(-c2c([C@H](OC(C)(C)C)C(=O)O)n(C)c(=O)c3cc(OCc4ccc(Cl)s4)ccc23)ccc2c1CCCO2 [Example 112, (2S)-2-(tert-butoxy)-2-{7-[(5-chlorothiophen-2-yl)methoxy]-2-methyl-4-(5-methyl-3,4-dihydro-2H-1-benzopyran-6-yl)-1-oxo-1,2-dihydroisoquinolin-3-yl}acetic acid] | 50 |
| Cc1ccc(COc2ccc3c(-c4cc(F)c5c(c4C)CCCO5)c([C@H](OC(C)(C)C)C(=O)O)n(C)c(=O)c3c2)s1 [Example 113, (2S)-2-(tert-butoxy)-2-[4-(8-fluoro-5-methyl-3,4-dihydro-2H-1-benzopyran-6-yl)-2-methyl-7-[(5-methylthiophen-2-yl)methoxy]-1-oxo-1,2-dihydroisoquinolin-3-yl]acetic acid] | 30 |
| Cc1c(-c2c(C(OC(C)(C)C)C(=O)O)n(C)c(=O)c3cc(OC(F)F)ccc23)ccc2c1CCCO2 (centres unmarked) [Example 114, 2-(tert-butoxy)-2-[7-(difluoromethoxy)-2-methyl-4-(5-methyl-3,4-dihydro-2H-1-benzopyran-6-yl)-1-oxo-1,2-dihydroisoquinolin-3-yl]acetic acid] | 420 |
| Cc1ccc2c(-c3ccc4c(c3C)CCCO4)c([C@H](OC(C)(C)C)C(=O)O)n(C)c(=O)c2c1 [Example 115, (2S)-2-(tert-butoxy)-2-[2,7-dimethyl-4-(5-methyl-3,4-dihydro-2H-1-benzopyran-6-yl)-1-oxo-1,2-dihydroisoquinolin-3-yl]acetic acid] | 20 |
| CC(=O)N1CCOc2ccc(-c3c(C(OC(C)(C)C)C(=O)O)n(C)c(=O)c4ccccc34)c(Cl)c21 (centres unmarked) [Example 116, 2-[4-(4-acetyl-5-chloro-3,4-dihydro-2H-1,4-benzoxazin-6-yl)-2-methyl-1-oxo-1,2-dihydroisoquinolin-3-yl]-2-(tert-butoxy)acetic acid] | 33200 |
| Cc1c(-c2c(C(OC(C)(C)C)C(=O)O)n(C)c(=O)c3cc(OCCN4CCCC4)ccc23)ccc2c1CCCO2 (centres unmarked) [Example 117, 2-(tert-butoxy)-2-[2-methyl-4-(5-methyl-3,4-dihydro-2H-1-benzopyran-6-yl)-1-oxo-7-[2-(pyrrolidin-1-yl)ethoxy]-1,2-dihydroisoquinolin-3-yl]acetic acid] | 4090 |
| Cn1c(C(OC(C)(C)C)C(=O)O)c(-c2cnc3c(c2)CCCO3)c2ccccc2c1=O (centres unmarked) [Example 118, 2-(tert-butoxy)-2-(2-methyl-1-oxo-4-{2H,3H,4H-pyrano[2,3-b]pyridin-6-yl}-1,2-dihydroisoquinolin-3-yl)acetic acid] | 41600 |
| Cc1c(-c2c(C(OC(C)(C)C)C(=O)O)n(C)c(=O)c3cc(OCCN4CCOCC4)ccc23)ccc2c1CCCO2 (centres unmarked) [Example 119, 2-(tert-butoxy)-2-[2-methyl-4-(5-methyl-3,4-dihydro-2H-1-benzopyran-6-yl)-7-[2-(morpholin-4-yl)ethoxy]-1-oxo-1,2-dihydroisoquinolin-3-yl]acetic acid] | 2130 |
| COc1cc2c(=O)n(C)c(C(OC(C)(C)C)C(=O)O)c(-c3ccc4c(c3C)CCCO4)c2cc1C (centres unmarked) [Example 120, 2-(tert-butoxy)-2-[7-methoxy-2,6-dimethyl-4-(5-methyl-3,4-dihydro-2H-1-benzopyran-6-yl)-1-oxo-1,2-dihydroisoquinolin-3-yl]acetic acid] | 230 |
| CCc1c(-c2c(C(OC(C)(C)C)C(=O)O)n(C)c(=O)c3ccccc23)ccc2c1CCCO2 (centres unmarked) [Example 121, 2-(tert-butoxy)-2-[4-(5-ethyl-3,4-dihydro-2H-1-benzopyran-6-yl)-2-methyl-1-oxo-1,2-dihydroisoquinolin-3-yl]acetic acid] | 940 |
| Cc1c(-c2c(C(OC(C)(C)C)C(=O)O)n(C)c(=O)c3cc(OCC(=O)O)ccc23)ccc2c1CCCO2 (centres unmarked) [Example 122, 2-({3-[(tert-butoxy)(carboxy)methyl]-2-methyl-4-(5-methyl-3,4-dihydro-2H-1-benzopyran-6-yl)-1-oxo-1,2-dihydroisoquinolin-7-yl}oxy)acetic acid] | 50000 |
| Cc1c(-c2c(C(OC(C)(C)C)C(=O)O)n(C)c(=O)c3cc(OS(=O)(=O)N(C)C)ccc23)ccc2c1CCCO2 (centres unmarked) [Example 123, 2-(tert-butoxy)-2-{7-[(dimethylsulfamoyl)oxy]-2-methyl-4-(5-methyl-3,4-dihydro-2H-1-benzopyran-6-yl)-1-oxo-1,2-dihydroisoquinolin-3-yl}acetic acid] | 1220 |
| Cc1ccc2c(-c3cc(F)c4c(c3C)CCCO4)c(C(OC(C)(C)C)C(=O)O)n(C)c(=O)c2c1 (centres unmarked) [Example 124, 2-(tert-butoxy)-2-[4-(8-fluoro-5-methyl-3,4-dihydro-2H-1-benzopyran-6-yl)-2,7-dimethyl-1-oxo-1,2-dihydroisoquinolin-3-yl]acetic acid] | 130 |
| COc1ccc2c(-c3cc(F)c4c(c3C)CCCO4)c(C(OC(C)(C)C)C(=O)O)n(C)c(=O)c2c1 (centres unmarked) [Example 125, 2-(tert-butoxy)-2-[4-(8-fluoro-5-methyl-3,4-dihydro-2H-1-benzopyran-6-yl)-7-methoxy-2-methyl-1-oxo-1,2-dihydroisoquinolin-3-yl]acetic acid] | 320 |
| COc1ccc2c(-c3ccc4c(c3C)CCCO4)c(C(OC(C)(C)C)C(=O)O)n(C)c(=O)c2c1F (centres unmarked) [Example 126, 2-(tert-butoxy)-2-[8-fluoro-7-methoxy-2-methyl-4-(5-methyl-3,4-dihydro-2H-1-benzopyran-6-yl)-1-oxo-1,2-dihydroisoquinolin-3-yl]acetic acid] | 360 |
| Cc1c(-c2c(C(OC(C)(C)C)C(=O)O)n(C)c(=O)c3cc(C(F)(F)F)ccc23)ccc2c1CCCO2 (centres unmarked) [Example 127, 2-(tert-butoxy)-2-[2-methyl-4-(5-methyl-3,4-dihydro-2H-1-benzopyran-6-yl)-1-oxo-7-(trifluoromethyl)-1,2-dihydroisoquinolin-3-yl]acetic acid] | 1140 |
| Cc1c(-c2c(C(OC(C)(C)C)C(=O)O)n(C)c(=O)c3cc(OCc4ccc(S(C)(=O)=O)cc4)ccc23)ccc2c1CCCO2 (centres unmarked) [Example 128, 2-(tert-butoxy)-2-{7-[(4-methanesulfonylphenyl)-methoxy]-2-methyl-4-(5-methyl-3,4-dihydro-2H-1-benzopyran-6-yl)-1-oxo-1,2-dihydroisoquinolin-3-yl}acetic acid] | 380 |
| Cc1c(-c2c(C(OC(C)(C)C)C(=O)O)n(C)c(=O)c3cc(OCc4ccccn4)ccc23)ccc2c1CCCO2 (centres unmarked) [Example 129, 2-(tert-butoxy)-2-[2-methyl-4-(5-methyl-3,4-dihydro-2H-1-benzopyran-6-yl)-1-oxo-7-(pyridin-2-ylmethoxy)-1,2-dihydroisoquinolin-3-yl]acetic acid] | 200 |
| COc1cc2c(=O)n(C)c(C(OC(C)(C)C)C(=O)O)c(-c3ccc4c(c3C)CCCO4)c2cc1Cl (centres unmarked) [Example 130, 2-(tert-butoxy)-2-[6-chloro-7-methoxy-2-methyl-4-(5-methyl-3,4-dihydro-2H-1-benzopyran-6-yl)-1-oxo-1,2-dihydroisoquinolin-3-yl]acetic acid] | 3750 |
| Cc1ccc2c(-c3cc(F)c4c(c3C)CCCO4)c([C@H](OC(C)(C)C)C(=O)O)n(C)c(=O)c2c1 [Example 131, (2S)-2-(tert-butoxy)-2-[4-(8-fluoro-5-methyl-3,4-dihydro-2H-1-benzopyran-6-yl)-2,7-dimethyl-1-oxo-1,2-dihydroisoquinolin-3-yl]acetic acid] | 20 |
| Cc1c(-c2c(C(OC(C)(C)C)C(=O)O)n(C)c(=O)c3cc(OCc4ccc(C(F)(F)F)cc4)ccc23)ccc2c1CCCO2 (centres unmarked) [Example 132, 2-(tert-butoxy)-2-[2-methyl-4-(5-methyl-3,4-dihydro-2H-1-benzopyran-6-yl)-1-oxo-7-{[4-(trifluoromethyl)phenyl]-methoxy}-1,2-dihydroisoquinolin-3-yl]acetic acid] | 310 |
| Cc1nc(COc2ccc3c(-c4cc(F)c5c(c4C)CCCO5)c(C(OC(C)(C)C)C(=O)O)n(C)c(=O)c3c2)c(C)o1 (centres unmarked) [Example 133, 2-(tert-butoxy)-2-{7-[(dimethyl-1,3-oxazol-4-yl)methoxy]-4-(8-fluoro-5-methyl-3,4-dihydro-2H-1-benzopyran-6-yl)-2-methyl-1-oxo-1,2-dihydroisoquinolin-3-yl}acetic acid] | 930 |
